Experiment [1] deals with T1, sPLA2-X protein (Homo sapiens, UniProt O15496).
T1 sequence (O15496 43-165): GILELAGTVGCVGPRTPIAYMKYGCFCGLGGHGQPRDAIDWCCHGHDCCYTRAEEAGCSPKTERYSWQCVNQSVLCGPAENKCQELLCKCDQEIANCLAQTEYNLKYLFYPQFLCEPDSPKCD
As to the kind of experiment: sPLA2-X enzyme inhibition assay (thio-PC substrate, DTNB detection, absorbance 410 nm). It counts as biochemical. Set-up: made in house; host or cells: E. coli. The settings on record: class symbols.

The target in experiment [2] is T2, recombinant human sPLA2-V enzyme (Homo sapiens, UniProt P39877).
T2 construct: made in house; host or cells: E. coli
T2 sequence (P39877 21-138): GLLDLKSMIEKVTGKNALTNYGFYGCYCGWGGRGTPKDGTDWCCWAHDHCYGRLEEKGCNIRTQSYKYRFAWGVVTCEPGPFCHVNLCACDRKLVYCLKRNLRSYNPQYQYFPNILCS
Kind of experiment: sPLA2-V enzyme inhibition assay (thio-PC substrate, DTNB detection, absorbance 410 nm). It counts as biochemical. The settings on record: class symbols.

Experiment [3] deals with T3, recombinant human sPLA2-IIA enzyme (Homo sapiens, UniProt P14555).
T3 construct: made in house; host or cells: E. coli
T3 sequence (P14555 21-144): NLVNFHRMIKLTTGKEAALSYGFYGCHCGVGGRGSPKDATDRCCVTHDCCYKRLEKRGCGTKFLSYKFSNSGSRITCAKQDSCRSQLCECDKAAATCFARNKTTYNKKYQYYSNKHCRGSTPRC
Kind of experiment: sPLA2-IIA enzyme inhibition assay (thio-PC substrate, DTNB detection, absorbance 410 nm). It counts as biochemical. The following applies: class symbols.

For experiment [4], the target named is T1, sPLA2-X protein. As to the kind of experiment: SPR single cycle kinetic binding analysis against sPLA2-X. Set-up: His tag (implied by capture on NTA surface and by anti-His antibody). The following applies: protein captured cross-linked on NTA surface, 1:1 fit. Here is the method: sPLA2-X protein was captured on flow cell 2-4 on activated NTA surface (NTA Series S Sensorchip (Cytiva)) after dilution in 1×HBS-EP+buffer (Cytiva), 10 mM CaCl2 to 0.01 mg/mL with a flow rate of 5 μL/min for 60 sec. Single cycle kinetic binding analysis was performed using 10 mM stock solution of LY531590 (Cayman Chemical, item #18267) (prepared in DMSO diluted 1:5 in running buffer (lx HBS-EP+buffer (Cytiva)+10 mM CaCl2+2% DMSO) from 10 to 0.016 μM. Flow cell 1 was used as a reference surface and 350 mM EDTA (Cytiva) was used to regenerate the surface. DMSO solvent correction was included. A 1:1 fit was used for the kinetics analysis.
SPLA2-X protein was captured cross-linked on flow cell 2, 3, and 4 with activated NTA surface (NTA Series S Sensorchip (Cytiva)) at 0.01 mg/mL with a flow rate of […] for 60 sec. Single cycle kinetic binding analysis was performed using a 50 mM stock solution of Compound 5 (prepared in DMSO) diluted 1:5 in running buffer (1×HIBS-EP+buffer (Cytiva)+10 mM CaCl2+2% o DMSO) from 800 to 1.2 nMV. Flow cell 1 was used as a reference surface. DMSO solvent correction was included. A 1:1 fit was used for the kinetics and steady state affinity analysis.

Setting [5] is: read-out: sPLA2 Type X Inhibition (IC50; nM).
Where [6] appears, read: read-out: sPLA2 Type V Inhibition (IC50; nM).
[7] abbreviates: read-out: sPLA2 Type IIa Inhibition (IC50; nM).
[8] abbreviates: sPLA2 Type X Inhibition (IC50; nM).

Where a name gives a salt, the structure may show the parent alone. Read-outs that look alike come from different tables or passages of the source. Where only a bound is given, the exact number is not on record here.

One may read the IC50 as the concentration needed to halve the response being measured. A word on the Kd: it is the concentration at which binding is half-saturated. For the molecule `NC(=O)c1sc2ccc(OC(F)(F)F)cc2c1-c1cccc(CCC(=O)O)c1` [Compound 5, 3-(3-(2-carbamoyl-5-(trifluoromethoxy)benzo[b]thiophen-3-yl)phenyl)propanoic acid], the values for the IC50 in experiment [1] (setting [5]), in experiment [2] (setting [6]) and in experiment [3] (setting [7]) were 20 to 50 nM, 1500 to 5000 nM and 200 to 500 nM, respectively. Also, the Rmax in experiment [4] came to 2.13. In addition, the dissociation constant Kd in experiment [4] (kinetics and steady state affinity) was determined as 0.00802 µM.

With `NC(=O)c1[se]c2ccc(OC(F)(F)F)cc2c1-c1cccc(C2(CC(=O)O)CC2)c1` [Compound 34, 2-(1-(3-(2-carbamoyl-5-(trifluoromethoxy)benzo[b]selenophen-3-yl)phenyl)cyclopropyl)acetic acid], the IC50 was 20 to 50 nM in experiment [1] (setting [8]), 1500 to 5000 nM in experiment [2] (setting [6]) and more than 1000 nM in experiment [3] (setting [7]).

For the molecule `NC(=O)c1cc2ccc(OC(F)(F)F)cc2n1-c1cncc(CCC(=O)O)c1` [Compound 53], the IC50 in experiment [1] (setting [5]) was 50 to 200 nM; in experiment [2] (setting [6]), more than 5000 nM; in experiment [3] (setting [7]), more than 1000 nM.

For the molecule `C/C(=C\C(=O)O)c1cccc(-n2c(C(N)=O)cc3ccc(OC(F)(F)F)cc32)n1` [Compound 6, (E)-3-(6-(2-carbamoyl-6-(trifluoromethoxy)-1H-indol-1-yl)pyridin-2-yl)but-2-enoic acid], the figures for the IC50 in experiment [1] (setting [5]), in experiment [2] (setting [6]) and in experiment [3] (setting [7]) were more than 200 nM, more than 5000 nM and more than 1000 nM, respectively.

Regarding `NC(=O)c1oc2ccccc2c1-c1cccc(CCC(=O)O)c1` [Compound 25, 3-(3-(2-carbamoylbenzofuran-3-yl)phenyl)propanoic acid], the figures for the IC50 in experiment [1] (setting [5]), in experiment [2] (setting [6]) and in experiment [3] (setting [7]) were more than 200 nM, more than 5000 nM and more than 1000 nM, respectively.

Turning to `NC(=O)c1cc2ccc(OC(F)(F)F)cc2n1-c1ccc2c(c1)C(CC(=O)O)CO2` (centres unmarked) [Compound 1, 2-(5-(2-carbamoyl-6-(trifluoromethoxy)-1H-indol-1-yl)-2,3-dihydrobenzofuran-3-yl)acetic acid], the IC50 in experiment [1] (setting [5]) was 50 to 200 nM; in experiment [2] (setting [6]) it was more than 5000 nM; in experiment [3] (setting [7]) it was more than 1000 nM.

In the case of `NC(=O)c1[se]c2ccc(OC(F)(F)F)cc2c1-c1cccc(CCC(=O)O)c1` [Compound 29, 3-(3-(2-carbamoyl-5-(trifluoromethoxy)benzo[b]selenophen-3-yl)phenyl)propanoic acid], the IC50 in experiment [1] (setting [8]) is 50 to 200 nM; in experiment [2] (setting [6]), 1500 to 5000 nM; in experiment [3] (setting [7]) it was 500 to 1000 nM.

Take `NC(=O)c1sc2ccc(OC(F)(F)F)cc2c1-c1cccc(C2CC2C(=O)O)n1` (stereo not drawn) [Compound 56, trans-2-(6-(2-carbamoyl-5-(trifluoromethoxy)benzo[b]thiophen-3-yl)pyridin-2-yl)cyclopropane-1-carboxylic acid]: the figures for the IC50 in experiment [1] (setting [5]), in experiment [2] (setting [6]) and in experiment [3] (setting [7]) were less than 20 nM, more than 5000 nM and more than 1000 nM, respectively.

With `NC(=O)c1cc2ccc(OC(F)(F)F)cc2n1-c1cccc(C2CC2C(=O)O)c1` (racemic) [Compound 15, trans-2-(3-(2-carbamoyl-6-(trifluoromethoxy)-1H-indol-1-yl)phenyl)cyclopropane-1-carboxylic acid], the IC50 in experiment [1] (setting [5]) was 20 to 50 nM; in experiment [2] (setting [6]), more than 5000 nM; in experiment [3] (setting [7]), more than 1000 nM.

In the case of `NC(=O)c1cc2ccc(OC(F)(F)F)cc2n1-c1cccc(C2CC2C(=O)O)n1` (racemic) [Compound 28, trans-(rac)-2-(6-(2-carbamoyl-6-(trifluoromethoxy)-1H-indol-1-yl)pyridin-2-yl)cyclopropane-1-carboxylic acid], the IC50 in experiment [1] (setting [5]) was less than 20 nM; in experiment [2] (setting [6]), more than 5000 nM; in experiment [3] (setting [7]), more than 1000 nM.

As for `COC(=O)CC1(c2cccc(-c3c(C(N)=O)sc4ccc(OC(F)(F)F)cc34)c2)CC1` [Compound 35, methyl 2-(1-(3-(2-carbamoyl-5-(trifluoromethoxy)benzo[b]thiophen-3-yl)phenyl)cyclopropyl)acetate], the IC50 in experiment [1] (setting [5]) is more than 200 nM; in experiment [2] (setting [6]), more than 5000 nM; in experiment [3] (setting [7]), more than 1000 nM.

With `NC(=O)c1cc2ccc(OC(F)(F)F)cc2n1-c1cccc(S(=O)(=O)CC(=O)O)n1` [Compound 45, 2-((6-(2-carbamoyl-6-(trifluoromethoxy)-1H-indol-1-yl)pyridin-2-yl)sulfonyl)acetic acid], the IC50 is 20 to 50 nM in experiment [1] (setting [5]), more than 5000 nM in experiment [2] (setting [6]) and more than 1000 nM in experiment [3] (setting [7]).

As to `NC(=O)c1cc2ccc(OC(F)(F)F)cc2n1-c1cccc([C@@H]2C[C@H]2C(=O)O)n1` (single isomer, unassigned) [Compound 28b, trans-(+)-2-(6-(2-carbamoyl-6-(trifluoromethoxy)-1H-indol-1-yl)pyridin-2-yl)cyclopropane-1-carboxylic acid], the IC50 in experiment [1] (setting [5]) was more than 200 nM; in experiment [2] (setting [6]), more than 5000 nM; in experiment [3] (setting [7]), more than 1000 nM.

Consider `NC(=O)c1cc2ccc(OC(F)(F)F)cc2n1-c1ccc2occ(CC(=O)O)c2c1` [Compound 12, 2-(5-(2-carbamoyl-6-(trifluoromethoxy)-1H-indol-1-yl)benzofuran-3-yl)acetic acid], for which the IC50 is 50 to 200 nM in experiment [1] (setting [5]), more than 5000 nM in experiment [2] (setting [6]) and more than 1000 nM in experiment [3] (setting [7]).

Consider `NC(=O)c1cc2ccc(OC(F)(F)F)cc2n1-c1cccc(N2CC(C(=O)O)C2)n1` [Compound 52, 1-(6-(2-carbamoyl-6-(trifluoromethoxy)-1H-indol-1-yl)pyridin-2-yl)azetidine-3-carboxylic acid], for which the IC50 in experiment [1] (setting [5]) is 50 to 200 nM; in experiment [2] (setting [6]) it was 1500 to 5000 nM; in experiment [3] (setting [7]) it was more than 1000 nM.

On to `NC(=O)c1[se]c2ccc(OC(F)(F)F)cc2c1-c1cccc(C2CC2C(=O)O)n1` (stereo not drawn) [Compound 57, trans-2-(6-(2-carbamoyl-5-(trifluoromethoxy)benzo[b]selenophen-3-yl)pyridin-2-yl)cyclopropane-1-carboxylic acid], for which the 50% inhibitory concentration (IC50) was 50 to 200 nM in experiment [1] (setting [8]), more than 5000 nM in experiment [2] (sPLA2 Type V Inhibition (IC50; nM)) and more than 1000 nM in experiment [3] (sPLA2 Type IIa Inhibition (IC50; nM)).

In the case of `NCc1cccc(-n2c(C(N)=O)cc3ccc(OC(F)(F)F)cc32)n1` [Compound 27, 1-(6-(aminomethyl)pyridin-2-yl)-6-(trifluoromethoxy)-1H-indole-2-carboxamide TFA salt], the IC50 in experiment [1] (setting [5]) is more than 200 nM; in experiment [2] (setting [6]), more than 5000 nM; in experiment [3] (setting [7]) it was more than 1000 nM.

Consider `NC(=O)c1cc2ccc(OC(F)(F)F)cc2n1-c1cccc(CC2(C(=O)O)CCC2)c1` [Compound 10, 1-(3-(2-carbamoyl-6-(trifluoromethoxy)-1H-indol-1-yl)benzyl)cyclobutane-1-carboxylic acid], for which the figures for the IC50 in experiment [1] (setting [5]), in experiment [2] (setting [6]) and in experiment [3] (setting [7]) were 20 to 50 nM, 500 to 1500 nM and 500 to 1000 nM, respectively.

In the case of `NC(=O)c1cc2ccc(OC(F)(F)F)cc2n1-c1cccc(C2(CC(=O)O)CC2)c1` [Compound 31, 2-(1-(3-(2-carbamoyl-6-(trifluoromethoxy)-1H-indol-1-yl)phenyl)cyclopropyl)acetic acid], the figures for the IC50 in experiment [1] (setting [5]), in experiment [2] (setting [6]) and in experiment [3] (setting [7]) were less than 20 nM, less than 500 nM and more than 1000 nM, respectively.

Consider `NC(=O)c1cc2ccc(OC(F)(F)F)cc2n1-c1cccc(C2CC2C(=O)O)c1` (single isomer, unassigned) [Compound 15a, trans-(+)-2-(3-(2-carbamoyl-6-(trifluoromethoxy)-1H-indol-1-yl)phenyl)cyclopropane-1-carboxylic acid], for which the IC50 in experiment [1] (setting [5]) was more than 200 nM; in experiment [2] (setting [6]), more than 5000 nM; in experiment [3] (setting [7]) it was more than 1000 nM.

On to `NC(=O)c1cc2ccc(OC(F)(F)F)cc2n1-c1cccc([C@H]2C[C@@H]2C(=O)O)n1` (relative stereo) [Compound 28a, trans-(−)-2-(6-(2-carbamoyl-6-(trifluoromethoxy)-1H-indol-1-yl)pyridin-2-yl)cyclopropane-1-carboxylic acid], for which the IC50 was less than 20 nM in experiment [1] (setting [5]), more than 5000 nM in experiment [2] (setting [6]) and more than 1000 nM in experiment [3] (setting [7]).

Regarding `NC(=O)c1cc2ccc(OC(F)(F)F)cc2n1-c1cccc(SCC(=O)O)n1` [Compound 44, 2-((6-(2-carbamoyl-6-(trifluoromethoxy)-1H-indol-1-yl)pyridin-2-yl)thio)acetic acid], the IC50 in experiment [1] (setting [5]) is less than 20 nM; in experiment [2] (setting [6]), more than 5000 nM; in experiment [3] (setting [7]), more than 1000 nM.

Values taken from patent US20260034111A1, “NOVEL HETEROCYCLES AS sPLA2-X INHIBITORS” (Cayman Chemical Company Incorporated, priority 2022, published 2026).
